{
  "source": "patent US20070059339A1",
  "about": "“1-O-BETA-D-glucopyranosylgeraniol-10,5-olide and use thereof” (ISKRA INDUSTRY CO., LTD., priority 2005, published 2007)",
  "key": {"[1]": {"experiment": "Hair growth ameliorating action on hair-removed back of mice, transdermal administration", "type": "in vivo, C3H male mice", "settings": "for Hair growth score versus control group (FIG. 9): 10 mg once a day", "excerpt": "6 week-old C3H male mice (Nippon SLC, body weight: about 30 g) were pre-bred for 1 week, then, divided into two groups of a control group and an administration group (4 mice for each group). Hair on the back of the mice in both groups was removed with an electric shaver, and hair growth effect was investigated. […] For the mice in the control group, 45% water-containing ethanol was transdermally administered instead of the specimen solution for 28 days.\nFor observation of hair growth condition, hair growth score and hair length were measured.\nFor measurement of hair growth score, the back of a mouse on which a specimen solution or 45% water-containing ethanol had been applied was visually observed, and based on the conditions directly after hair removal, a case of no change was endowed with 0 point, a case of color change to blue at a center portion on the back was endowed with 1 point, a case of color change from blue black to gray at a center portion on the back was endowed with 2 points, a case of observation of hair growth at a center portion on the back was endowed with 3 points, and a case of covering about 50% at a center portion on the back with back hair and recovery of color before hair removal at a center portion on the back was endowed with 4 points. The score average value and the standard error of the mice in both the groups were measured. Since there was observed […] irregularity in hair growth score between the control group and the administration group, the Mann-Whitney U-test was carried out as a significant difference test between both groups.\nOn the other hand, for measurement of hair length, part of hair was collected every one week, then, 10 hairs were selected randomly while removing extremely longer hairs and extremely shorter hairs, and lengths of them were measured by a microscope."}, "[2]": {"experiment": "Oral administration for two weeks at 2500 mg/kg per day, observation of side effects", "type": "in vivo", "settings": "ten ICR male mice, versus control group"}, "[3]": {"experiment": "Obesity ameliorating, lipid metabolism ameliorating and hypoglycemic action in mice bred with a high fat diet", "type": "in vivo, ddY male SPF mice", "excerpt": "6 week-old ddY male SPF mice (Nippon .SLC, body weight: about 30 g) were pre-bred for 1 week, then, divided into two groups of a control group and an administration group (5 mice for each group). Each of the mice in both the groups was bred for 6 weeks with a high fat diet (lard 40%, corn starch 10%, granulated sugar 9%, mineral mix 4%, vitamin mix 1%, casein 29%, cellulose 5%, lactose 2%). For the mice in the administration group, a specimen solution prepared by dissolving the compound (I) in purified water was continuously administered for 6 weeks with a dose of 250 mg/kg once a day while allowing water-drinking, and the body weight was measured at a frequency of once a week, during the feeding period with the high fat diet. For the mice in the control group, purified water was administered for 6 weeks instead of the specimen solution while allowing water-drinking.\nThe average value of the body weight of mice in each group and the standard error thereof were measured, and a significant difference test (t-test) between both the groups was carried out.\nOn the other hand, after completion of the above-mentioned continuous administration allowing water-drinking for 6 weeks, serum was collected from each mouse and blood biochemical values were measured, and liver and fat were excised and the weights of them were measured, respectively. Using the respective measurement results, the average value and the standard error were measured for each group, and a significant difference test (t-test) was carried out between both the groups."}, "[4]": {"settings": "250 mg/kg once a day for 6 weeks, average +/- standard error of five mice"}, "[5]": {"settings": "serum after 6 weeks, 250 mg/kg once a day, average +/- standard error of five mice"}},
  "note": "“Also recorded” adds a separate entry of the source. Marks after values point to notes of the source that are not given here.",
  "data": [
    {"smiles": "CC(C)=CC1C/C(=C/CO[C@@H]2OC(CO)[C@@H](O)C(O)C2O)C(=O)O1", "note": "(stereo partly drawn) [compound (I), 1-O-β-D-glucopyranosylgeraniol-10,5-olide]", "values": [
      {"measurement": "Hair growth score versus control group (FIG. 9)", "setting": "[1]; day 7 to day 17 after transdermal administration", "result": "tended to be higher"},
      {"measurement": "Hair growth score versus control group (FIG. 9)", "setting": "[1]; days 13, 15 and 16 after transdermal administration, Mann-Whitney U-test", "result": "significantly higher"},
      {"measurement": "Hair length versus control group", "setting": "[1]; hair collected every one week, 10 hairs measured by microscope, 10 mg transdermally once a day, data not shown", "result": "no significant difference"},
      {"measurement": "Side effect", "setting": "[2]", "result": "did not provide a recognizable side effect; also recorded: no side effect was recognized at all"},
      {"measurement": "Weight of fat, around kidney", "setting": "[3]; [4]", "result": "0.035 ± 0.010", "unit": "g"},
      {"measurement": "Weight of fat, around posterior abdominal wall", "setting": "[3]; [4]", "result": "0.186 ± 0.096", "unit": "g"},
      {"measurement": "Body weight versus control group (FIG. 8)", "setting": "[3]; 250 mg/kg once a day for 6 weeks, weighed once a week", "result": "the body weight transited at a lower level"},
      {"measurement": "Blood biochemical value, blood glucose level", "setting": "[3]; after 6 weeks, 250 mg/kg once a day, average +/- standard error of five mice", "result": "183 +/− 35.7** mg/dL"},
      {"measurement": "Weight of liver", "setting": "[3]; compound 250 mg/kg once a day for 6 weeks, average +/- standard error of five mice", "result": "1.124 ± 0.124", "unit": "g"},
      {"measurement": "Blood biochemical value, total cholesterol", "setting": "[3]; [5]", "result": "118 ± 22.3", "unit": "mg/dL"},
      {"measurement": "Blood biochemical value, triglyceride", "setting": "[3]; [5]", "result": "26 ± 15.8", "unit": "mg/dL"}
    ]}
  ]
}
